{"source": "patent US6355627B1", "about": "“Branched cyclodextrin clathrate compound of hinokitiols and composition containing the same” (Takasago International Corporation, priority 1999, dated 2002)", "key": {"[1]": {"test": "Solubility in water at 15° C.", "assay_type": "physicochemical", "description": "The solubilities of the above various branched CD clathrate compounds prepared in the above examples and reference example in water at 15° C. are shown in Table 1."}, "[2]": {"test": "Evaluation of the heat stability (sublimation)", "assay_type": "physicochemical", "conditions": "1000 mg allowed to stand at 90° C. for 20 hours", "description": "The results of the residual weight, sublimation rate (%) and sublimation rate (%) converted into a hinokitiol were shown in Table 4."}, "[3]": {"system": "Staphylococcus epidermidis JCM 2414", "test": "Antibacterial test, serial double dilution method (MIC)", "assay_type": "cell-based", "conditions": "JCM2414, Muller-Hilton agar, 37° C., 24 hours, concentration converted into hinokitiol", "description": "(§1) The clathrate compound of the present invention and non-clathrate compounds were each subjected to an antibacterial test. Aerobic and anaerobic bacteria used in the test are as follows:\nSe: Staphylococcus epidermidis JCM 2414\n(§2) The samples used in the antibacterial test are as follows in which butylparabene was used as a control compound. The concentrations of clathrate compounds were all measured by converting into the concentrations of a hinokitiol. Samples of antibacterial agents\n(§3) Method: Serial Double Dilution Method\n(§4) As for the culture medium, an aqueous solution containing 38 g/l of a Muller-Hilton agar medium (manufactured by DEFCO) was used for aerobic bacteria and an aqueous solution containing 59 g/l of a GAM agar medium (manufactured by Nissui Pharmaceutical Co., Ltd.) for anaerobic bacteria. Each subject compound was added to each corresponding medium in a manner that the concentration of a hinokitiol was 400 μg/ml and diluted according to the serial double dilution method using the same medium. 10 ml of each resulting medium was poured into a plastic Schale with an inside diameter of 90 mm and was solidified. The solidified medium in the Schale was divided. 0.1 ml of a distilled water suspension containing the subject microorganisms (the number of microorganisms: 10^6-10^9/ml) was inoculated into each compartment and incubated at 37° C. for 24 hours. […]"}, "[4]": {"system": "Corynebacterium minutissiumum ATCC 23348", "test": "Antibacterial test, serial double dilution method (MIC)", "assay_type": "cell-based", "conditions": "Muller-Hilton agar, 37° C., 24 hours, concentration converted into hinokitiol", "description": "as §1\nCm: Corynebacterium minutissiumum ATCC 23348\nas §2, §3, §4"}, "[5]": {"system": "Corinebacterium xerosis JCM 1324", "test": "Antibacterial test, serial double dilution method (MIC)", "assay_type": "cell-based", "conditions": "Muller-Hilton agar, 37° C., 24 hours; concentration converted into hinokitiol", "description": "as §1\nCx: Corinebacterium xerosis JCM 1324\nas §2, §3, §4"}, "[6]": {"system": "Malassezia furfur IFO 0656", "test": "Antibacterial test, serial double dilution method (MIC)", "assay_type": "cell-based", "conditions": "Muller-Hilton agar, 37° C., 24 hours, concentration converted into hinokitiol", "description": "as §1\nMf: Malassezia furfur IFO 0656\nas §2, §3, §4"}, "[7]": {"system": "Staphylococcus aureus IAM 1011", "test": "Antibacterial test, serial double dilution method (MIC)", "assay_type": "cell-based", "conditions": "Muller-Hilton agar, 37° C., 24 hours, concentration converted into hinokitiol", "description": "as §1\nSa: Staphylococcus aureus IAM 1011\nas §2, §3, §4"}, "[8]": {"system": "Escherichia coli IFO 3972", "test": "Antibacterial test, serial double dilution method (MIC)", "assay_type": "cell-based", "conditions": "Muller-Hilton agar, 37° C., 24 hours, concentration converted into hinokitiol", "description": "as §1\nEc: Escherichia coli IFO 3972\nas §2, §3, §4"}, "[9]": {"system": "Serratia marcessenes IFO 3736", "test": "Antibacterial test, serial double dilution method (MIC)", "assay_type": "cell-based", "conditions": "Muller-Hilton agar, 37° C., 24 hours, concentration converted into hinokitiol", "description": "as §1\nSm: Serratia marcessenes IFO 3736\nas §2, §3, §4"}, "[10]": {"system": "Proteus vulgaris IFO 3167", "test": "Antibacterial test, serial double dilution method (MIC)", "assay_type": "cell-based", "conditions": "Muller-Hilton agar, 37° C., 24 hours, concentration converted into hinokitiol", "description": "as §1\nPv: Proteus vulgaris IFO 3167\nas §2, §3, §4"}}}
{"compound": "CC(C)c1cccc(=O)c(O)c1", "note": "[Hinokitiol]", "values": [{"measurement": "Solubility in water", "setting": "[1]", "value": "<0.05", "unit": "%"}, {"measurement": "Residual weight", "setting": "[2]", "value": 8, "unit": "mg"}, {"measurement": "Sublimation rate", "setting": "[2]", "value": 99.2, "unit": "%"}, {"measurement": "MIC", "setting": "[3]", "value": 50, "unit": "µg/mL"}, {"measurement": "MIC", "setting": "[4]; Corynebacterium, ATCC23348", "value": 50, "unit": "µg/mL"}, {"measurement": "MIC", "setting": "[5]", "value": 50, "unit": "µg/mL"}, {"measurement": "MIC", "setting": "[6]; Malassezia furfur, IFO0656", "value": 50, "unit": "µg/mL"}, {"measurement": "MIC", "setting": "[7]; Staphylococcus aureus, IAM1011", "value": 50, "unit": "µg/mL"}, {"measurement": "MIC", "setting": "[8]; Escherichia coli, IFO3972", "value": 50, "unit": "µg/mL"}, {"measurement": "MIC", "setting": "[9]; Serratia, IFO3736", "value": 200, "unit": "µg/mL"}, {"measurement": "MIC", "setting": "[10]; Proteus vulgaris, IFO3167", "value": 50, "unit": "µg/mL"}]}
{"compound": "CCCCOC(=O)c1ccc(O)cc1", "note": "[Butylparabene]", "values": [{"measurement": "MIC, Cm", "setting": "[4]", "value": 100, "unit": "µg/mL"}, {"measurement": "MIC, Cx", "setting": "[5]", "value": 100, "unit": "µg/mL"}, {"measurement": "MIC, Mf", "setting": "[6]", "value": 100, "unit": "µg/mL"}, {"measurement": "MIC, Sa", "setting": "[7]", "value": 100, "unit": "µg/mL"}, {"measurement": "MIC, Ec", "setting": "[8]", "value": 400, "unit": "µg/mL"}, {"measurement": "MIC, Sm", "setting": "[9]", "value": ">400", "unit": "µg/mL"}, {"measurement": "MIC, Pv", "setting": "[10]", "value": 100, "unit": "µg/mL"}]}
{"compound": "CC(C)c1cccc(=O)c([O-])c1.[Na+]", "note": "[sodium salt of hinokitiol]", "values": [{"measurement": "Residual weight", "setting": "[2]", "value": 764, "unit": "mg"}, {"measurement": "Sublimation rate", "setting": "[2]", "value": 23.6, "unit": "%"}]}
